Experiments:
hDAGL-α [1] = biological target: T1, hDAGL-α (Homo sapiens, UniProt Q9Y4D2); test: Biochemical hDAGL-α activity assay (PNP-butyrate hydrolysis, 96 well plate); parameters: expressed in transfected cells; host or cells: HEK293T (transient), membrane fraction; conditions: PNP-butyrate 0.3 mM, membranes of HEK293T cells transfected with hDAGL-α
T1 sequence (Q9Y4D2 1-1042): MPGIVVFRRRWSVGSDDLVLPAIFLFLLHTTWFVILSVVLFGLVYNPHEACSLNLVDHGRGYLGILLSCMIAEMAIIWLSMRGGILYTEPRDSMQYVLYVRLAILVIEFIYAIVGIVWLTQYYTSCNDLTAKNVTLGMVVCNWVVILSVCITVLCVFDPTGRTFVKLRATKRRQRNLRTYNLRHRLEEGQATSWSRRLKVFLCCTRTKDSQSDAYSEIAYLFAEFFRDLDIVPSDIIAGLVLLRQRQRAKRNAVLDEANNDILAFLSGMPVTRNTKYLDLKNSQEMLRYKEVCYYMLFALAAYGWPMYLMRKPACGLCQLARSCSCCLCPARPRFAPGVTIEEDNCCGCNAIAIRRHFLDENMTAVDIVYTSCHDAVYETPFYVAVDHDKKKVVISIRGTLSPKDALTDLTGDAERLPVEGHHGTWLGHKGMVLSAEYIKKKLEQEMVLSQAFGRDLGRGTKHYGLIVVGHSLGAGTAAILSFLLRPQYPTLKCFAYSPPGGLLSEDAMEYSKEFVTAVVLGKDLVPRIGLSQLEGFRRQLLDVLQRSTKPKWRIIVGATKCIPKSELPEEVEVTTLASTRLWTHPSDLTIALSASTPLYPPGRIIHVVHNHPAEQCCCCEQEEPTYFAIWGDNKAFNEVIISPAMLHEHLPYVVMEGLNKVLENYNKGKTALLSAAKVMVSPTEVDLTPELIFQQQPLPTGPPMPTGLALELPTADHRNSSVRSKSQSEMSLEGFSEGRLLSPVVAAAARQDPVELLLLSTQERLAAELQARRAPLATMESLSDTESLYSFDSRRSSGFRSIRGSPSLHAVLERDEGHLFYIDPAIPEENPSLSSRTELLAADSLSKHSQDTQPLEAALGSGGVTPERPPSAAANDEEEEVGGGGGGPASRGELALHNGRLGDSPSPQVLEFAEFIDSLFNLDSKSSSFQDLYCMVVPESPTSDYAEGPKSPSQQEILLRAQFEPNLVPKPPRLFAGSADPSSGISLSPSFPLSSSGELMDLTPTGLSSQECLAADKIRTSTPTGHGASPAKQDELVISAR
Procedure: The biochemical hDAGL-α activity assay is based on the hydrolysis of para-nitrophenylbutyrate (PNP-butyrate) by membrane preparations from HEK293T cells transiently transfected with hDAGL-α. 200 µL reactions were performed in flat bottom Greiner 96-wells plates in a 50 mM pH 7.2 Hepes buffer. Membrane protein fractions from HEK293T cells transiently transfected with hDAGL-α (0.05 µg/µL final concentration) were used as hDAGL-α source. Compounds to be tested were introduced in 5 µL DMSO. The mixtures were incubated for 30 minutes before 5.0 µL 12 mM PNP-butyrate (final concentration 0.3 mM) in DMSO was added (final DMSO concentration 5.0%). Kinetics were followed immediately after addition of PNP-butyrate on a plate reader (TECAN GENios® microplate reader), by measuring the OD420 every 60 seconds, for 20 minutes at 37°C. The slope of the linear region from 5-15 minutes was determined, and all experiments were performed at N = 2, n = 2 for experimental measurements and N = 2, n = 4 for controls.
Data analysis: Z'-factor of each plate was determined for the validation of each experiment, using the following formula Z' = 1-3(σpc + σnc)/(µpc - µnc). The slope from 5-15 minutes of the positive control (pc: hDAGL-α, DMSO), and the negative control (nc: Mock, DMSO) was used. Plates were accepted for further analysis when Z' > 0.6. Kinetic measurements were corrected for the average absorption of the negative control (mock, DMSO). The slope of the linear region from 5-15 minutes was determined. The average, standard deviation (SD) and standard error of mean (SEM) were calculated and normalized to the corrected positive control. Data was exported to Graphpad Prism 5.0 for the calculation of the pIC50 using a nonlinear dose-response analysis.

hDAGL-α [2] = biological target: T1, hDAGL-α; test: DAGL-α natural substrate assay (SAG hydrolysis, glycerol based real-time fluorescence assay); format: biochemical; parameters: expressed in transfected cells; host or cells: HEK293T (transient), membrane preparation; conditions: for pIC50: n=4
From the text: To confirm that compound 25 was also able to block conversion of the natural substrate 1-stearoyl-2-arachidonoyl-sn-glycerol of DAGL-α to the endocannabinoid 2-AG, the inventors employed a real-time, fluorescence-based assay. The DAGL-α natural substrate assay is based on the production of 2-AG from 1-stearoyl-2-arachidonoyl-sn-glycerol (SAG) hydrolysis by DAGL-α-overexpressing membrane preparations from transiently transfected HEK293T cells. The 2-AG production is coupled to the oxidation of commercially available Amplifu™Red via a multi-enzyme cascade, resulting in a fluorescent signal from the dye resorufin.
Standard assays were performed in HEMNB buffer (50 mM HEPES pH 7.4, 1 mM EDTA, 5 mM MgCl2, 100 mM NaCl, 0.5% (w/v) BSA) in black, flat clear-bottom 96-wells plates (Greiner). Final protein concentration of membrane preparations from DAGL-α-overexpressing HEK293T cells was 50 µg/mL (10 µg per well). Inhibitors were added from 40x concentrated DMSO stocks. A substrate solution of 1-stearoyl-2-arachidonoyl-sn-glycerol was prepared just prior to use. The SAG stock solution (10 mg/mL in methyl acetate) was dried under argon and subsequently dissolved in 50 mM HEPES buffer (pH 7.0) containing 0.75% (w/v) Triton X-100. The substrate solution was mixed to form an emulsion and stored on ice until use.
DAGL-α-overexpressing membranes were incubated with inhibitor for 20 min. Subsequently, assay mix containing glycerol kinase (GK), glycerol-3-phosphate oxidase (GPO), horseradish peroxidase (HRP), adenosine triphosphate (ATP), monoacylglycerol lipase (MAGL), Amplifu™Red and 1-stearoyl-2-arachidonoyl-sn-glycerol (SAG) was added and fluorescence was measured in 5 min intervals for 60 min on a GENios microplate reader (Tecan, Giessen, The Netherlands).
Standard assay concentrations: 0.2 U/mL GK, GPO and HRP, 0.125 mM ATP, 5 µg/mL MAGL-overexpressing membranes, 10 µM Amplifu™Red, 100 or 150 µM SAG, 5% DMSO, 0.0075% (w/v) Triton X-100 in a total volume of 200 µL.

[3] = natural substrate 1-stearoyl-2-arachidonoyl-sn-glycerol

Row | DAGL-α Activity assay pIC50 (hDAGL-α [1]) | pIC50 (hDAGL-α [2]; [3]) | IC50 (hDAGL-α [1]; read-out: DAGL-α Activity assay pIC50 (converted)) | pIC50 (hDAGL-α [2]; glycerol based natural substrate assay, figure legend prints nM, unit of the source corrected) | fold increase compared to compound 1 (hDAGL-α [2]; natural substrate assay) | Compound
1 | 7.43 | 6.3 ± 0.1 |  |  |  | O=C(CCCCCc1ccccc1)c1nc2ncccc2o1 [Compound 1, 1-(Oxazolo[4,5-b]pyridin-2-yl)-6-phenylhexan-1-one, reference compound]
2 |  | 7.9 ± 0.08 | 3.02 nM | 7.9 ± 0.08 | 40 fold | Cc1ccc(-c2cnc3nc(C(=O)CCCCCc4ccccc4)oc3c2)cc1 [Compound 25, 1-(6-(p-Tolyl)oxazolo[4,5-b]pyridin-2-yl)-6-phenylhexan-1-one]

Reference: patent EP3095787A1, “[…] ACTIVE COMPOUNDS AS DAG-LIPASE INHIBITORS” (Universiteit Leiden, priority 2015, dated 2016)
